Test system: annexin 1
Experiment: Annexin 1 levels in small intestine epithelial cells of treated Min and wild-type mice
Format: in vivo
Conditions: NO-ASA 100 mg/kg or Dex 10 mg/kg daily for 7 days
Procedure: To assess whether these changes occur in vivo, the inventors studied isolated small intestine epithelial cells from Min mice and the corresponding wild type mice C57BL/6J (of which the Min mice are a congenic derivative) treated with NO-ASA 100 mg/kg or Dex 10 mg/kg daily for 7 days. Min (multiple intestinal neoplasia), a mutant allele of the murine APC (adenomatous polyposis coli) locus, encodes a nonsense mutation at codon 850. Heterozygous Min mutants spontaneously develop tumors in the intestine and represent a model of intestinal carcinogenesis (M. Lipkin et al., Ann. N.Y. Acad. Sci. 889:14-19 (1999); A. Moser, H. Pitot, W. Dove, Science 247:322-324 (1990)). The levels of annexin 1 were increased in both Min and wild-type mice treated with either NO-ASA or Dex (FIG. 7A and FIG. 8A). The induction of annexin 1 by NO-ASA or Dex was accompanied by the inhibition of NF-κB activity (FIGS. 7B and 8B).
A mouse model of multiple intestinal neoplasia, the Min mice, and the congenic parent wild-type mice were used to test the in vivo action of NO-ASA in the induction of annexin 1. Both wild-type and Min mice were treated for 7 days with vehicle or NO-ASA 100 mg/kg. After 7 days of treatment, the mice were sacrificed and the epithelial cells were evaluated as in Example 6 by confocal microscopy.

Substance: nitric oxide-donating aspirin [NO-ASA]
- levels of annexin 1 (Min mice): increased
- levels of annexin 1 (wild-type mice): increased

Reference: patent US8691764B2, “Inhibitors of NF-κB activity” (The Research Foundation for the State University of New York, priority 2007, dated 2014)
